Reference: patent US6737383B1, “Herbicidal oxadiazolidines” (priority 1999, dated 2004)

Experiments:
velvetleaf = experiment: Test B pre/postemergence velvetleaf; format: in vivo, Abutilon theophrasti
Procedure, shortened: (§1)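 Response is a visual 0-to-10 score relative to untreated plants, where 0 means no effect and 10 means complete control, taken twelve to sixteen days after application. Treatments went onto soil at planting and onto foliage of 1- to 4-leaf plants, using a surfactant-containing non-phytotoxic solvent.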

winter wheat [1] = experiment: Test E winter wheat; format: in vivo, Triticum aestivum; conditions: Postemergence
Procedure, shortened: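 Plants were grown under normal greenhouse practice; for postemergence, in sandy loam soil mixed 60:40 with potting mix, treated at the 1- to 4-leaf stage. The compound was in a non-phytotoxic solvent carrying a surfactant. After roughly 21 to 28 days plants were scored visually against untreated plants.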

blackgrass [2] = experiment: Test B pre/postemergence blackgrass; format: in vivo, Alopecurus myosuroides
Procedure, shortened: as §1

bedstraw = experiment: Test B pre/postemergence bedstraw; format: in vivo, Galium aparine
Procedure, shortened: as §1

blackgrass [3] = experiment: Test E blackgrass; format: in vivo, Alopecurus myosuroides; conditions: Preemergence
winter wheat [4] = experiment: Test E winter wheat; format: in vivo, Triticum aestivum; conditions: Preemergence
green foxtail = experiment: Test E green foxtail; format: in vivo, Setaria viridis; conditions: Preemergence
wild oat = experiment: Test E wild oat; format: in vivo, Avena fatua; conditions: Preemergence
wheat = experiment: Test B pre/postemergence wheat; format: in vivo, Triticum aestivum
Procedure, shortened: as §1

winter barley = experiment: Test E winter barley; format: in vivo, Hordeum vulgare; conditions: Preemergence; for Barley (winter) plant response rating (0 to 100 scale): Rate 250 g/ha
Italian ryegrass = experiment: Test E Italian ryegrass; format: in vivo, Lolium multiflorum; conditions: Preemergence
[5] = Preemergence, Rate 62 g/ha, scale of 0 to 10 where 0 is no effect and 10 is complete control
[6] = Preemergence, Rate 250 g/ha, scale of 0 to 10 where 0 is no effect and 10 is complete control
[7] = Preemergence, Rate 500 g/ha, scale of 0 to 10 where 0 is no effect and 10 is complete control
[8] = Rate 62 g/ha, Postemergence, scale of 0 to 10 where 0 is no effect and 10 is complete control
[9] = Rate 125 g/ha, Postemergence, scale 0 to 10
[10] = Rate 125 g/ha, Preemergence, scale of 0 to 10 where 0 is no effect and 10 is complete control
[11] = Rate 500 g/ha, Postemergence, scale 0 to 10, 0 no effect, 10 complete control
[12] = Rate 1000 g/ha, 0 to 100 scale where 0 is no effect and 100 is complete control
[13] = Rate 500 g/ha, 0 to 100 scale, 0 is no effect, 100 is complete control
[14] = Rate 500 g/ha, 0 to 100 scale where 0 is no effect and 100 is complete control
[15] = Rate 1000 g/ha, 0 to 100 scale, 0 no effect, 100 complete control
[16] = Postemergence, Rate 1000 g/ha, scale 0 to 10 (0 no effect, 10 complete control)
[17] = Preemergence, Rate 125 g/ha, 0 is no effect, 10 is complete control
[18] = Preemergence, Rate 250 g/ha, scale 0 to 10, 0 is no effect, 10 is complete control
[19] = Preemergence, Rate 500 g/ha, scale 0 to 10 (0 no effect, 10 complete control)
[20] = Rate 250 g/ha, Postemergence, scale 0 to 10, 0 is no effect, 10 is complete control
[21] = Rate 500 g/ha, Postemergence, scale 0 to 10
[22] = Rate 1000 g/ha, Preemergence, scale 0 to 10 (0 no effect, 10 complete control)
[23] = Postemergence, Rate 125 g/ha, scale of 0 to 10 where 0 is no effect and 10 is complete control
[24] = Postemergence, Rate 125 g/ha, scale 0 to 10, 0 is no effect, 10 is complete control
[25] = Postemergence, Rate 250 g/ha, scale 0 to 10, 0 is no effect, 10 is complete control
[26] = Preemergence, Rate 62 g/ha, scale 0 to 10 (0 no effect, 10 complete control)
[27] = Rate 125 g/ha, 0 to 100 scale (0 no effect, 100 complete control)
[28] = Rate 500 g/ha, 0 to 100 scale (0 no effect, 100 complete control)

SMILES: Cc1nc(C)c(Cn2c(=O)on(C(=O)N(c3ccc(F)cc3F)C(C)C)c2=O)s1 [Compound 233]
- Velvetleaf plant response rating (velvetleaf; [5]): 0
- Velvetleaf plant response rating (velvetleaf; [6]): 2
- Plant response rating, Velvetleaf (velvetleaf; [7]): 7
- Velvetleaf plant response rating (velvetleaf; [8]): 2
- Velvetleaf plant response rating (velvetleaf; [9]): 2
- Velvetleaf plant response rating (velvetleaf; [10]): 0
- Plant response rating (0 to 10; 0 is no effect, 10 is complete control), Velvetleaf (velvetleaf; Rate 250 g/ha, Postemergence): 3
- Velvetleaf plant response rating (velvetleaf; [11]): 3
- Plant response rating, Wheat (winter) (winter wheat [1]; [12]): 60
- Wheat (winter) plant response rating (winter wheat [1]; Rate 250 g/ha, 0 to 100 scale where 0 is no effect and 100 is complete control): 50
- Plant response rating, Wheat (winter) (winter wheat [1]; [13]): 55
- Blackgrass plant response rating (blackgrass [2]; [5]): 2
- Blackgrass plant response rating (blackgrass [2]; [6]): 8
- Plant response rating, Blackgrass (blackgrass [2]; [7]): 9
- Blackgrass plant response rating (blackgrass [2]; [8]): 0
- Blackgrass plant response rating (blackgrass [2]; [9]): 0
- Blackgrass plant response rating (blackgrass [2]; [10]): 2
- Plant response rating (0 to 10; 0 is no effect, 10 is complete control), Blackgrass (blackgrass [2]; Rate 250 g/ha, Postemergence): 2
- Blackgrass plant response rating (blackgrass [2]; [11]): 5
- Bedstraw plant response rating (bedstraw; [5]): 0
- Bedstraw plant response rating (bedstraw; [6]): 0
- Plant response rating, Bedstraw (bedstraw; [7]): 0
- Bedstraw plant response rating (bedstraw; [8]): 0
- Bedstraw plant response rating (bedstraw; [9]): 0
- Bedstraw plant response rating (bedstraw; [10]): 0
- Plant response rating (0 to 10; 0 is no effect, 10 is complete control), Bedstraw (bedstraw; Rate 250 g/ha, Postemergence): 3
- Bedstraw plant response rating (bedstraw; [11]): 5
- Blackgrass plant response rating (0 to 100 scale) (blackgrass [3]; Rate 250 g/ha): 50
- Plant response rating, Blackgrass (blackgrass [3]; [14]): 60
- Plant response rating, Blackgrass (blackgrass [3]; [15]): 85
- Wheat (winter) plant response rating (0 to 100 scale) (winter wheat [4]; Rate 250 g/ha): 50
- Plant response rating, Wheat (winter) (winter wheat [4]; [14]): 50
- Plant response rating, Wheat (winter) (winter wheat [4]; [15]): 60
- Green foxtail plant response rating (0 to 100 scale) (green foxtail; Rate 250 g/ha): 100
- Plant response rating, Green foxtail (green foxtail; [14]): 100
- Plant response rating, Green foxtail (green foxtail; [15]): 100
- Wild oat plant response rating (0 to 100 scale) (wild oat; Rate 250 g/ha): 55
- Plant response rating, Wild oat (wild oat; [14]): 60
- Plant response rating, Wild oat (wild oat; [15]): 60
- Wheat plant response rating (wheat; [5]): 0
- Wheat plant response rating (wheat; [6]): 0
- Plant response rating, Wheat (wheat; [7]): 0
- Wheat plant response rating (wheat; [8]): 0
- Wheat plant response rating (wheat; [9]): 0
- Wheat plant response rating (wheat; [10]): 0
- Plant response rating (0 to 10; 0 is no effect, 10 is complete control), Wheat (wheat; Rate 250 g/ha, Postemergence): 0
- Wheat plant response rating (wheat; [11]): 0
- Barley (winter) plant response rating (0 to 100 scale) (winter barley): 30
- Plant response rating, Barley (winter) (winter barley; [14]): 50
- Plant response rating, Barley (winter) (winter barley; [15]): 60
- I. Ryegrass plant response rating (0 to 100 scale) (Italian ryegrass; Rate 250 g/ha): 40
- Plant response rating, I. Ryegrass (Italian ryegrass; [14]): 50
- Plant response rating, I. Ryegrass (Italian ryegrass; [15]): 60

SMILES: Cc1ccccc1-n1c(=O)on(C(=O)N(c2c(F)cccc2F)C(C)C)c1=O [Compound 176]
- Velvetleaf plant response rating (velvetleaf; [16]): 3
- Velvetleaf plant response rating (0 to 10 scale) (velvetleaf; [17]): 0
- Velvetleaf plant response rating (velvetleaf; [18]): 0
- Velvetleaf plant response rating (velvetleaf; [19]): 2
- Plant response rating, Velvetleaf (velvetleaf; [20]): 2
- Velvetleaf plant response rating (velvetleaf; [21]): 2
- Plant response rating, Velvetleaf (velvetleaf; [22]): 5
- Plant response rating, Wheat (winter) (winter wheat [1]; Rate 1000 g/ha, 0 to 100 scale, 0 is no effect and 100 is complete control): 40
- Plant response rating, Wheat (winter) (winter wheat [1]; [13]): 50
- Blackgrass plant response rating (blackgrass [2]; [23]): 0
- Blackgrass plant response rating (blackgrass [2]; [16]): 7
- Blackgrass plant response rating (0 to 10 scale) (blackgrass [2]; [17]): 0
- Blackgrass plant response rating (blackgrass [2]; [18]): 2
- Blackgrass plant response rating (blackgrass [2]; [19]): 3
- Plant response rating, Blackgrass (blackgrass [2]; [20]): 0
- Blackgrass plant response rating (blackgrass [2]; [21]): 3
- Plant response rating, Blackgrass (blackgrass [2]; [22]): 7
- Bedstraw plant response rating (bedstraw; [23]): 0
- Bedstraw plant response rating (bedstraw; [16]): 9
- Bedstraw plant response rating (0 to 10 scale) (bedstraw; [17]): 0
- Bedstraw plant response rating (bedstraw; [18]): 0
- Bedstraw plant response rating (bedstraw; [19]): 0
- Plant response rating, Bedstraw (bedstraw; [20]): 2
- Bedstraw plant response rating (bedstraw; [21]): 8
- Plant response rating, Bedstraw (bedstraw; [22]): 6
- Blackgrass plant response rating (0 to 100 scale) (blackgrass [3]; Rate 250 g/ha): 40
- Plant response rating, Blackgrass (blackgrass [3]; [14]): 50
- Plant response rating, Blackgrass (blackgrass [3]; [12]): 75
- Wheat (winter) plant response rating (0 to 100 scale) (winter wheat [4]; Rate 250 g/ha): 20
- Plant response rating, Wheat (winter) (winter wheat [4]; [14]): 30
- Plant response rating, Wheat (winter) (winter wheat [4]; [12]): 50
- Green foxtail plant response rating (0 to 100 scale) (green foxtail; Rate 250 g/ha): 50
- Plant response rating, Green foxtail (green foxtail; [14]): 70
- Plant response rating, Green foxtail (green foxtail; [12]): 100
- Wild oat plant response rating (0 to 100 scale) (wild oat; Rate 250 g/ha): 30
- Plant response rating, Wild oat (wild oat; [14]): 50
- Plant response rating, Wild oat (wild oat; [12]): 50
- Wheat plant response rating (wheat; [16]): 4
- Wheat plant response rating (0 to 10 scale) (wheat; [17]): 0
- Wheat plant response rating (wheat; [18]): 0
- Wheat plant response rating (wheat; [19]): 0
- Plant response rating, Wheat (wheat; [20]): 0
- Wheat plant response rating (wheat; [21]): 2
- Plant response rating, Wheat (wheat; [22]): 4
- Barley (winter) plant response rating (0 to 100 scale) (winter barley): 30
- Plant response rating, Barley (winter) (winter barley; [14]): 40
- Plant response rating, Barley (winter) (winter barley; [12]): 50
- I. Ryegrass plant response rating (0 to 100 scale) (Italian ryegrass; Rate 250 g/ha): 50
- Plant response rating, I. Ryegrass (Italian ryegrass; [14]): 60
- Plant response rating, I. Ryegrass (Italian ryegrass; [12]): 98

SMILES: CC(C)N(C(=O)n1oc(=O)n(CC2CCOC2)c1=O)c1ccc(F)cc1 (stereo not shown) [Compound 375]
- Plant response rating, Velvetleaf (velvetleaf; [24]): 0
- Plant response rating, Velvetleaf (velvetleaf; [25]): 2
- Plant response rating, Velvetleaf (velvetleaf; [26]): 0
- Velvetleaf plant response rating (0 to 10 scale) (velvetleaf; Preemergence, Rate 125 g/ha): 3
- Velvetleaf plant response rating (velvetleaf; [6]): 4
- Velvetleaf plant response rating (velvetleaf; [7]): 7
- Velvetleaf plant response rating (velvetleaf; [8]): 0
- Plant response rating, Velvetleaf (velvetleaf; [11]): 4
- Plant response rating, Wheat (winter) (winter wheat [1]; Rate 125 g/ha, 0 to 100 scale, 0 is no effect, 100 is complete control): 35
- Plant response rating, Wheat (winter) (winter wheat [1]; Rate 250 g/ha, 0 to 100 scale, 0 is no effect, 100 is complete control): 35
- Plant response rating, Wheat (winter) (winter wheat [1]; [13]): 50
- Plant response rating, Blackgrass (blackgrass [2]; [24]): 5
- Plant response rating, Blackgrass (blackgrass [2]; [25]): 5
- Plant response rating, Blackgrass (blackgrass [2]; [26]): 3
- Blackgrass plant response rating (0 to 10 scale) (blackgrass [2]; Preemergence, Rate 125 g/ha): 5
- Blackgrass plant response rating (blackgrass [2]; [6]): 9
- Blackgrass plant response rating (blackgrass [2]; [7]): 10
- Blackgrass plant response rating (blackgrass [2]; [8]): 2
- Plant response rating, Blackgrass (blackgrass [2]; [11]): 8
- Plant response rating, Bedstraw (bedstraw; [26]): 6
- Bedstraw plant response rating (0 to 10 scale) (bedstraw; Preemergence, Rate 125 g/ha): 10
- Bedstraw plant response rating (bedstraw; [6]): 10
- Bedstraw plant response rating (bedstraw; [7]): 10
- Plant response rating, Blackgrass (blackgrass [3]; [27]): 20
- Plant response rating, Blackgrass (blackgrass [3]; Rate 250 g/ha, 0 to 100 scale): 60
- Plant response rating, Blackgrass (blackgrass [3]; [28]): 65
- Plant response rating, Wheat (winter) (winter wheat [4]; [27]): 30
- Plant response rating, Wheat (winter) (winter wheat [4]; Rate 250 g/ha, 0 to 100 scale): 40
- Plant response rating, Wheat (winter) (winter wheat [4]; [28]): 50
- Plant response rating, Green foxtail (green foxtail; [27]): 50
- Plant response rating, Green foxtail (green foxtail; Rate 250 g/ha, 0 to 100 scale): 60
- Plant response rating, Green foxtail (green foxtail; [28]): 70
- Plant response rating, Wild oat (wild oat; [27]): 55
- Plant response rating, Wild oat (wild oat; Rate 250 g/ha, 0 to 100 scale): 60
- Plant response rating, Wild oat (wild oat; [28]): 70
- Plant response rating, Wheat (wheat; [24]): 0
- Plant response rating, Wheat (wheat; [25]): 2
- Plant response rating, Wheat (wheat; [26]): 0
- Wheat plant response rating (0 to 10 scale) (wheat; Preemergence, Rate 125 g/ha): 0
- Wheat plant response rating (wheat; [6]): 2
- Wheat plant response rating (wheat; [7]): 3
- Wheat plant response rating (wheat; [8]): 0
- Plant response rating, Wheat (wheat; [11]): 6
- Plant response rating, Barley (winter) (winter barley; [27]): 35
- Plant response rating, Barley (winter) (winter barley; [28]): 30
- Plant response rating, I. Ryegrass (Italian ryegrass; [27]): 50
- Plant response rating, I. Ryegrass (Italian ryegrass; Rate 250 g/ha, 0 to 100 scale): 70
- Plant response rating, I. Ryegrass (Italian ryegrass; [28]): 65
